Assays:
[1] = system: oral tolerance to β-lactoglobulin; conditions: previously identified as part of a longer peptide sequence in the earlier filing; cited from earlier work
[2] = system: HLA-DR; test: peptides bound to HLA-DR on cells cultured with NAN-HA/BEBA-HA formula, isolated by immunoprecipitation and identified by LC-MS/MS; format: binding, human; conditions: U937 and Thp1 cells incubated 24 hours with BEBA-HA; immunoprecipitation with clone L243; nano-LC-MSMS
Procedure: In a set of experiments detailed in Example 1, the present inventors identified the peptide sequences of BLG responsible for the induction of oral tolerance towards milk proteins, in particular BLG. In a first step, using a cellular based assay, partially hydrolyzed infant formula NAN HA™ (otherwise known as BEBE HA™) from Nestlé, was incubated with human cells expressing the Major Histocompatibility Complex (MHC) class II receptor, HLA-DR. As the first step in the induction of oral tolerance, the HLA receptor presents peptide sequences to the T cells, thereby inducing tolerance. Thus, development of tolerance is largely dependent on the recognition of the peptide sequence by the MHC.
Thus, in the current invention, the human cells expressing HLA-DR were cultured in the presence of NAN-HA™ formula (which had been verified to be non-toxic for the cells), the peptides that bound to the HLA receptor were isolated by immunoprecipitation, and then identified by mass spectrometry and amino acid sequencing.
The Thp1 and U937 cells were incubated in 20 mL RPMI-1640 medium with L-Glutamine (Sigma) supplemented with 10% heat-inactivated FCS (Amimed, Bioconcept) and Penicillin/Streptomycin (Sigma) at a concentration of 1×10^6 cells/mL in a T175 cm^2 (Falcon) with respectively 1 ug/mL and 100 ug/mL of BEBA-HA (Nestlé, Lot# L02680742AP) for a 24 hours period at 37° C. in presence of 5% CO2. Cells were spun down and harvested to perform immunoprecipitation of MHC-peptide complexes.
Briefly, for each condition tested (control without BEBA-HA, sample with BEBA-HA for both cell lines), 2×10^7 cells were resuspended in ice cold TBS and washed three times. […]
Before MS analysis, HLA-DR peptides were desalted using either reversed-phase C18 (The Nest group, USA) or mixed-mode OASIS (Waters, USA) desalting columns as described in the manufacturer's manual. After desalting, peptides were analyzed by nano-LC-MSMS using an in-house Magic C18 column (150×0.075 mm) for peptide separation (2-35% Acetontril/0.1% formaic acid in 30 minutes) coupled to an Orbitrap XL instrument. […]

[3] = system: BLG-specific IgE antibodies; test: experimental mouse model of sensitization to BLG: gavage, then i.p. sensitization, BLG-specific IgE in serum; format: in vivo, BALB/cJ mice; conditions: gavage days 1, 2, 3, 8, 9 and 10 (0.22 μmole); i.p. native BLG on alum day 14; serum days 30-33; FIG. 1
Procedure: Mice were fed either native BLG or either synthetic peptide (84-106) or (25-107) by gavage on day 1, 2, 3, 8, 9 and 10. They were then sensitized by i.p. administration with native BLG on day 14. Serum IgE levels were measured between day 30 and 33.
Specific pathogen-free (SPF) BALB/cJ mice (3 to 4 weeks-old females, Centre d'Elevage René Janvier, Le Genest Saint-Isle, France) were housed in filtered cages under normal SPF husbandry conditions (autoclaved bedding and sterile water) and were acclimatized for two weeks before experiments. They were maintained on a diet deprived of animal protein, and in which BLG was not detected using specific sandwich immunoassays. All animal experiments were performed according to European Community rules of animal care, and with authorization 91-368 of the French Veterinary Services. […]
Groups of 6 or 7 mice were administered either 4 mg of native bovine BLG, or equivalent quantity (i.e. 0.22 μmole) of isolated synthetic BLG peptides. […]
The efficacy of mice sensitization was assessed by quantitative measurements of BLG-specific IgE antibodies on individual serum samples collected from the mice retro-orbital venous plexus under light anaesthesia (Isoflurane, Baxter) between days 30-33. Non-specific binding was determined using individual sera from 10 naive mice, and was deduced from the absorbance values measured with immune sera. […]

| Substance | induction of oral tolerance [1] | recognition by and binding to HLA-DR (identified among HLA-DR bound peptides) [2] | BLG-specific serum IgE level / tolerance induction compared to control (PBS) [3] |
| --- | --- | --- | --- |
| EVDDEALEK [peptide c, previously known tolerogenic BLG peptide, position 143-151, positive control] | inducers of oral tolerance | identified by this method |  |
| IDALNENK [peptide a, previously known tolerogenic BLG peptide, position 100-107, positive control] | inducers of oral tolerance | identified by this method |  |
| VLDTDY (SAEPEQ; UniProt P02754 126-131, looked up, fragment) [peptide b, previously known tolerogenic BLG peptide, position 110-115, positive control] | inducers of oral tolerance | identified by this method |  |
| peptide (84-106): synthetic peptide corresponding to the bovine BLG sequence numbers 84-106 (MW 2731 Da) (IDALNENKVLVLDTDYKKYLLFC; UniProt P02754 100-122, looked up, fragment) |  |  | tendency towards a lower level of IgE |

— US10092633B2, “Newly identified peptides for use in the induction of oral tolerance in young mammals” (NESTEC S.A., priority 2013, dated 2018)
